The results in this text go back to article PMC6855808, “Direct binding of phosphatidylglycerol at specific sites modulates desensitization of a ligand-gated ion channel” (eLife, 2019).

“And” between values parts separate entries of the source, which are not always exact repeats. Equal entries are not always repeated. Where two headings read alike, the source gives them in different places.

For one series, the target named is T1, ELIC R117Q (Dickeya chrysanthemi, UniProt P0C7B7, INS163G/R117Q).
T1 construct: MBP (N, cleaved yes); made in house; host or cells: OverExpress C43 (DE3) E. coli
Put plainly: Excised patch-clamp recordings from giant liposomes. In kind it is biochemical, Erwinia chrysanthemi. The conditions noted are these: 25 mole% POPG.

Another series deals with T2, ELIC R123Q (Dickeya chrysanthemi, UniProt P0C7B7, INS163G/R123Q).
T2 construct: MBP (N, cleaved yes); made in house; host or cells: OverExpress C43 (DE3) E. coli
Described as above. In kind it is biochemical, Erwinia chrysanthemi. The conditions noted are these: 25 mole% POPG.

In a further series the target is T3, ELIC R286Q (Dickeya chrysanthemi, UniProt P0C7B7, R285Q).
T3 construct: MBP (N, cleaved yes); made in house; host or cells: OverExpress C43 (DE3) E. coli
The series is described as above. In kind it is biochemical, Erwinia chrysanthemi. The conditions noted are these: 25 mole% POPG.

Another series has as its target T4, ELIC R299Q (Dickeya chrysanthemi, UniProt P0C7B7, R298Q).
T4 construct: MBP (N, cleaved yes); made in house; host or cells: OverExpress C43 (DE3) E. coli
The series is described as above. The conditions noted are these: 25 mole% POPG. The class given is biochemical, Erwinia chrysanthemi.

The next series addresses T5, ELIC R301Q (Dickeya chrysanthemi, UniProt P0C7B7, R300Q).
T5 construct: MBP (N, cleaved yes); made in house; host or cells: OverExpress C43 (DE3) E. coli
The description is as above. In kind it is biochemical, Erwinia chrysanthemi. The conditions noted are these: 25 mole% POPG.

In the next series the target is T6, ELIC R117Q/R299Q (Dickeya chrysanthemi, UniProt P0C7B7, R117Q/R298Q).
T6 construct: MBP (N, cleaved yes); made in house; host or cells: OverExpress C43 (DE3) E. coli
The series is described as above. The conditions noted are these: 25 mole% POPG. The class given is biochemical, Erwinia chrysanthemi.

Another series concerns the target T7, ELIC R123Q/R299Q (Dickeya chrysanthemi, UniProt P0C7B7, R123Q/R298Q).
T7 construct: MBP (N, cleaved yes); made in house; host or cells: OverExpress C43 (DE3) E. coli
The description is as above. In kind it is biochemical, Erwinia chrysanthemi. The conditions noted are these: 25 mole% POPG.

Another series deals with T8, ELIC R286Q/R299Q (Dickeya chrysanthemi, UniProt P0C7B7, R285Q/R298Q).
T8 construct: MBP (N, cleaved yes); made in house; host or cells: OverExpress C43 (DE3) E. coli
The series is described as above. In kind it is biochemical, Erwinia chrysanthemi. The conditions noted are these: 25 mole% POPG.

Another series deals with T9, ELIC R301Q/R299Q (Dickeya chrysanthemi, UniProt P0C7B7, R298Q/R300Q).
T9 construct: MBP (N, cleaved yes); made in house; host or cells: OverExpress C43 (DE3) E. coli
The series is described as above. In kind it is biochemical, Erwinia chrysanthemi. The conditions noted are these: 25 mole% POPG.

The next series concerns the target T10, ELIC L238A (Dickeya chrysanthemi, UniProt P0C7B7, L237A).
T10 construct: MBP (N, cleaved yes); made in house; host or cells: OverExpress C43 (DE3) E. coli
The series is described as above. The conditions noted are these: 25 mole% POPG. In kind it is biochemical, Erwinia chrysanthemi.

Series [1] has as its system ELIC WT. The series is described as above. The conditions noted are these: for EC50: read-out: Dose response EC50 (mM cysteamine), peak current, 0.5 mM BaCl2.
Series [2] has as its target ELIC WT. The series is described as follows: Native MS phospholipid binding to delipidated ELIC in C10E5. Details: species or system Erwinia chrysanthemi. The conditions noted are these: binomial binding model, 32 sites of equal affinity; 1 μM ELIC in C10E5; read-out: Dissociation constant K. On the procedure:
Native MS analysis was similar to previous descriptions for other membrane proteins ([Gault et al., 2016]). For analysis of ELIC in DDM, 30 μl of purified protein in 0.02% DDM at ~1 mg/ml was buffer exchanged into 200 mM ammonium acetate pH 7.5% and 0.02% DDM using Biospin six gel filtration spin columns (Bio-Rad, Hercules, CA). 2 μl of buffer exchanged ELIC was loaded into a borosilicate capillary emitter (Thermo Scientific, Waltham, MA), and analyzed by static nanospray on a Thermo QExactive EMR mass spectrometer. The following parameters were used to resolve the ELIC pentamer and minimize dissociation into tetramer and monomer: capillary voltage of 1.2 kV, capillary temperature of 200°C, ion transfer optics set with the injection flatapole, inter-flatapole lens, bent flatapole, transfer multiple as 8, 7, 6, 4 V, respectively, resolution 8,750, AGC target 3 × 10^6, trap pressure set to maximum, CID 200 V, and CE 100 V. For analysis of ELIC in C10E5, ELIC delipidated by injecting 300 μg onto a Sephadex 200 10/300 column (GE Healthcare) at 0.5 ml/min pre-equilibrated with Buffer A, 10% glycerol, and 0.06% C10E5 (Anatrace). 30 μl aliquots were then buffer exchanged to 100 mM ammonium acetate pH 7.5, 0.06% C10E5 using Biospin six columns, and diluted to 0.2 mg/ml. MS measurements on the QExactive EMR were performed with the parameters listed above except: capillary temperature 100°C, CID 75 V and CE 200 V. For lipid binding measurements, stocks of POPG lipid were prepared at 2× the concentration of POPG being tested in 100 mM ammonium acetate pH 7.5% and 0.06% C10E5. Lipid stocks were then mixed with 0.4 mg/ml ELIC in a 1:1 vol ratio for a final concentration of 1 μM ELIC, and samples were analyzed after >5 min incubation.
MS spectra were deconvoluted using UniDec ([Marty et al., 2015]); deconvolution of spectra with bound lipid was restricted to the 26+ to 22+ charge states (Figure 1—figure supplement 3). Peak heights of apo and lipid-bound species were extracted from UniDec, and analyzed by two approaches. The average number of bound lipids was determined by the following relationship:(1) Averagenumberboundlipid=∑n=0kn\cdot In/∑n=0kIn where n is the number of bound lipids and In is the deconvoluted peak height of ELIC with n bound lipids. Peak heights of apo and lipid-bound species were also plotted as mole fraction versus the number of bound lipids (Figure 1—figure supplement 4).
Then, the probability (B) that q sites are occupied out of N total sites is given by the binomial probability function:(3) Bq=N!/q!N-q!p^N-q(1-p)^q
B(q) was used to determine the mole fraction of each lipid-bound species at a given [A], which was used to fit the native MS data in Excel across all [A] by setting K constant and varying N or vice versa.

Series [3] relates to ELIC WT. The series is described as follows: Thermal stability assay (SEC pentamer peak after heating). The conditions noted are these: 1 μM ELIC in C10E5, 32°C for 15 min. In kind it is binding, Erwinia chrysanthemi. The procedure:
Purified WT ELIC in C10E5 (Buffer A, 0.06% C10E5) was diluted to 1 μM in the absence or presence of various concentrations of phospholipid. Samples were analyzed without and with heating in the absence or presence of phospholipid. […] The stabilizing effect of a phospholipid was quantified as the pentamer amplitude in the presence of phospholipid (heated) divided by control (heated).

The test system of series [4] is ELIC WT. Put plainly: Sequential-mixing stopped-flow fluorescence Tl+ flux assay in liposomes. The conditions noted are these: 5 mM cysteamine. The class given is biochemical, Erwinia chrysanthemi.
Series [5] deals with the molecule itself. Put plainly: native MS; ELIC purified in 0.02% DDM, buffer exchanged into 200 mM ammonium acetate pH 7.5, 0.02% DDM; static nanospray, Q-Exactive EMR, CID 200 V, CE 100 V; co-purified lipids bound.
Setting [6] is: read-out: Cysteamine response EC50.

What is called EC50 is the concentration at which the effect is half-maximal. Regarding `NCCS` [cysteamine], the “Activation τ” value was 54 ± 40 ms on ELIC R117Q (30 mM cysteamine); 112 ± 65 ms at ELIC R123Q (30 mM cysteamine); 106 ± 34 ms at ELIC R286Q (30 mM cysteamine); 71 ± 27 ms at ELIC R299Q (30 mM cysteamine); 72 ± 15 ms on ELIC R301Q (30 mM cysteamine); 54 ± 26 ms on ELIC R117Q/R299Q (30 mM cysteamine). The “Activation τ” value is 74 ± 35 ms at ELIC R123Q/R299Q (30 mM cysteamine); 92 ± 27 ms on ELIC R286Q/R299Q (30 mM cysteamine); 71 ± 21 ms at ELIC R301Q/R299Q (30 mM cysteamine); 113 ± 51 ms on ELIC L238A (30 mM cysteamine); 134 ms and 134 ± 50 ms in the series with ELIC WT [1] (25 mole% POPG, 30 mM cysteamine). Besides, the “Desensitization norm current at 20 s” value at ELIC R117Q (30 mM cysteamine) was 0.060 ± 0.020; at ELIC R123Q (30 mM cysteamine), 0.067 ± 0.015; on ELIC R286Q (30 mM cysteamine), 0.091 ± 0.023; at ELIC R299Q (30 mM cysteamine) it was 0.074 ± 0.008; on ELIC R301Q (30 mM cysteamine), 0.045 ± 0.017; on ELIC R117Q/R299Q (30 mM cysteamine), 0.025 ± 0.004. Further, the “Desensitization norm current at 20 s” value was 0.041 ± 0.005 at ELIC R123Q/R299Q (30 mM cysteamine); 0.103 ± 0.032 on ELIC R286Q/R299Q (30 mM cysteamine); 0.030 ± 0.017 at ELIC R301Q/R299Q (30 mM cysteamine); 0.374 ± 0.045 on ELIC L238A (30 mM cysteamine); 0.100 ± 0.041 with ELIC WT [1] (25 mole% POPG, 30 mM cysteamine, normalized to peak response). Besides, the “Desensitization weighted τ” value on ELIC R117Q (30 mM cysteamine) is reported as 1.49 ± 0.40 s; on ELIC R123Q (30 mM cysteamine), 1.20 ± 0.39 s; on ELIC R286Q (30 mM cysteamine), 1.67 ± 0.24 s; at ELIC R299Q (30 mM cysteamine), 2.2 ± 0.17 s; on ELIC R301Q (30 mM cysteamine) it was 0.66 ± 0.28 s; on ELIC R117Q/R299Q (30 mM cysteamine) it was 1.13 ± 0.24 s. The “Desensitization weighted τ” value was found to be 1.66 ± 0.17 s at ELIC R123Q/R299Q (30 mM cysteamine), 2.08 ± 0.65 s on ELIC R286Q/R299Q (30 mM cysteamine), 0.45 ± 0.28 s on ELIC R301Q/R299Q (30 mM cysteamine) and 5.90 ± 1.37 s on ELIC L238A (30 mM cysteamine). Also, the EC50 on ELIC R117Q (setting [6]) worked out at 3.3 ± 0.9 mM; on ELIC R123Q (setting [6]), 3.7 ± 0.9 mM; at ELIC R286Q (setting [6]), 4.3 ± 0.4 mM; at ELIC R299Q (setting [6]) it was 4.7 ± 0.3 mM; at ELIC R301Q (setting [6]) it was 5.2 ± 0.8 mM; at ELIC R117Q/R299Q (setting [6]) it was 2.4 ± 0.7 mM. The half-maximal effective concentration (EC50) was determined as 3.7 ± 0.6 mM on ELIC R123Q/R299Q (setting [6]); 4.7 ± 1.5 mM on ELIC R286Q/R299Q (setting [6]); 3.9 ± 0.9 mM on ELIC R301Q/R299Q (setting [6]); 4.9 ± 1.1 mM at ELIC L238A (setting [6]); 5.3 ± 1 mM with ELIC WT [1] (12 mole% POPG); 5.1 ± 1.2 mM in the series with ELIC WT [1] (25 mole% POPG). Further, the EC50 in the series on ELIC WT [1] (40 mole% POPG) stood at 6.5 ± 1.3 mM.
Consider `CCCCCCCC/C=C\CCCCCCCC(=O)O[C@H](COC(=O)CCCCCCCCCCCCCCC)COP(=O)([O-])OCC[N+](C)(C)C` [POPC, 1-palmitoyl-2-oleoyl-phosphatidylcholine], for which the Kd at ELIC WT [2] came out at 0.28 mM. Moreover, the “Effect on ELIC stability against thermal denaturation” value in the series on ELIC WT [3] was “no effect”. Also, the “Fold faster rate of desensitization in POPC liposomes vs POPC:POPE:POPG liposomes” value in the series with ELIC WT [4] is reported as “more than 20 fold”. In the series with ELIC WT [4] (liposome composition as labelled, double exponential fit, fast component), the “Activation τ” value amounted to 39 ± 17 ms. The “Desensitization τ” value in the series with ELIC WT [4] (liposome composition as labelled, double exponential fit, slow component) is 0.42 ± 0.05 s.
Turning to `CCCCCCCC/C=C\CCCCCCCC(=O)O[C@H](COC(=O)CCCCCCCCCCCCCCC)COP(=O)(O)OCCN` [POPE, 1-palmitoyl-2-oleoyl-phosphatidylethanolamine], the Kd on ELIC WT [2] is 0.19 mM. Also, in the series on ELIC WT [3], the “Effect on ELIC stability against thermal denaturation” value is reported as “no effect”.

B1: Erwinia ligand-gated ion channel (ELIC), wild type (natural protein, Erwinia chrysanthemi, UniProt P0C7B7 1-321, looked up)
chain: APADNAADARPVDVSVSIFINKIYGVNTLEQTYKVDGYIVAQWTGKPRKTPGDKPLIVENTQIERWINNGLWVPALEFINVVGSPDTGNKRLMLFPDGRVIYNARFLGSFSNDMDFRLFPFDRQQFVLELEPFSYNNQQLRFSDIQVYTENIDNEEIDEWWIRKASTHISDIRYDHLSSVQPNQNEFSRITVRIDAVRNPSYYLWSFILPLGLIIAASWSVFWLESFSERLQTSFTLMLTVVAYAFYTSNILPRLPYTTVIDQMIIAGYGSIFAAILLIIFAHHRQAMGVEDDLLIQRCRLAFPLGFLAIGCVLVIRGITL
notes: Erwinia ligand-gated ion channel (ELIC), a pentameric ligand-gated ion channel of Erwinia chrysanthemi; expressed from pET26-MBP-ELIC (Addgene plasmid 39239); MBP was removed with HRV-3C protease before size exclusion; also called ELIC WT; WT; source: OverExpress C43 (DE3) E. coli, purified (membranes solubilized in DDM, amylose resin, HRV-3C digestion, size exclusion)
What is called stoichiometry N is a count of units in the complex or per binding partner. With B1, in [5], the “stoichiometry N” value amounted to 5.
